Reference: ChEMBL document CHEMBL5528088, “Design and Synthesis of Cyclolipopeptide Mimics of Dysoxylactam A and Evaluation of the Reversing Potencies against P-Glycoprotein-Mediated Multidrug Resistance” (J Med Chem, 2024)
Converted amounts (≈) assume the structure as drawn. The source made the active and inactive calls. The rule behind the calls is not given here.

What was measured:
KBv200 [1] = test: Inhibition of ADR uptake in human KBv200 cells at 10 uM incubated for 10 mins by flow cytometry; assay type: functional, cell-based
KBv200 [2] = test: Inhibition of Rho-123 uptake in human KBv200 cells at 10 uM incubated for 10 mins by flow cytometry; assay type: functional, cell-based
KBv200 [3] = test: Inhibition of calcein AM uptake in human KBv200 cells at 10 uM incubated for 10 mins by flow cytometry; assay type: functional, cell-based
KBv200 [4] = test: Reversal effect on P-gp-mediated multidrug resistance in human KBv200 cells assessed as inhibition of cell proliferation incubated for 72 hrs by SRB assay; assay type: functional, cell-based; details: KBv200, 72 h
KBv200 [5] = test: Reversal fold, ratio of PTX IC50 to PTX IC50 in presence of test compound for reversal effect on P-gp-mediated multidrug resistance in human KBv200 cells incubated for 72 hrs by SRB assay; assay type: functional
KBv200 [6] = test: Inhibition of ADR uptake in human KBv200 cells at 10 uM incubated for 10 mins by fluorescence microscopy; assay type: functional, cell-based
[7] = AUClast in Sprague-Dawley rat at 1 mg/kg, iv measured for 24 hrs by LC-MS analysis; assay type: ADME, organism-based; details: in vivo
KBv200 [8] = test: Antitumor activity against human KBv200 cells xenografted in Balb/cA nude mouse assessed as decrease in tumor size at 75 mg/kg, ip administered upto day 8 and measured for 14 days; assay type: functional, organism-based; details: time 14.0 day
[9] = Toxicity in Balb/cA nude mouse xenografted with human KBv200 cells assessed as change in body weight at 75 mg/kg, ip administered upto day 8 and measured for 14 days; assay type: organism-based; details: in vivo, 336 h, time 14 day
[10] = Cmax in Sprague-Dawley rat at 30 mg/kg, po measured for 24 hrs by LC-MS analysis; assay type: ADME, organism-based; details: in vivo
[11] = Tmax in Sprague-Dawley rat at 30 mg/kg, po measured for 24 hrs by LC-MS analysis; assay type: ADME, organism-based; details: in vivo
[12] = AUClast in Sprague-Dawley rat at 30 mg/kg, po measured for 24 hrs by LC-MS analysis; assay type: ADME, organism-based; details: in vivo
KBv200 [13] = test: Cytotoxicity against human KBv200 cells at 10 uM incubated for 72 hrs by SRB assay relative to control; assay type: functional
KBv200 [14] = test: Reversal fold, ratio of VNR IC50 to VNR IC50 in presence of test compound for human KBv200 cells incubated for 72 hrs by SRB assay; assay type: functional
[15] = AUC (infinity) in Sprague-Dawley rat at 1 mg/kg, iv measured for 24 hrs by LC-MS analysis; assay type: ADME, organism-based; details: in vivo
[16] = Inhibition of ADR efflux in human KBv200 cells assessed as ADR accumulation at 1 uM incubated for 3 hrs by flow cytometry (reference value: 25.7 %); assay type: functional; parameters: scale not given: the % may be the effect or the level left
[17] = Inhibition of ADR uptake in human KBv200 cells assessed as ADR accumulation at 10 uM incubated for 10 mins by flow cytometry (reference value: 6.2 %); assay type: functional; parameters: scale not given: the % may be the effect or the level left
[18] = Half life in Sprague-Dawley rat at 1 mg/kg, iv measured for 24 hrs by LC-MS analysis; assay type: ADME, organism-based; details: in vivo
[19] = Volume of distribution at steady state in Sprague-Dawley rat at 1 mg/kg, iv measured for 24 hrs by LC-MS analysis; assay type: ADME, organism-based; details: in vivo, read-out: Vdss
[20] = Inhibition of ADR efflux in human KBv200 cells assessed as ADR accumulation at 10 uM incubated for 3 hrs by flow cytometry (reference value: 25.7 %); assay type: functional; parameters: scale not given: the % may be the effect or the level left
KBv200 [21] = test: Reversal fold, ratio of ADR IC50 to ADR IC50 in presence of test compound for reversal effect on P-gp-mediated multidrug resistance in human KBv200 cells incubated for 72 hrs by SRB assay; assay type: functional
[22] = target: Multidrug resistance-associated protein 1 (Homo sapiens, UniProt P33527); test: Inhibition of MRP1 (unknown origin) expressed in HEK293 cells assessed as increase in mitoxantrone accumulation by flow cytometry; assay type: cell-based
KBv200 [23] = test: Effect on P-gp level in human KBv200 cells incubated for 24 hrs by qRT-PCR analysis; assay type: functional, cell-based
KBv200 [24] = test: Inhibition of ADR efflux in human KBv200 cells incubated for 3 hrs by fluorescence microscopy; assay type: functional, cell-based
[25] = Half life in Sprague-Dawley rat at 30 mg/kg, po measured for 24 hrs by LC-MS analysis; assay type: ADME, organism-based; details: in vivo
NCI/ADR-RES [26] = test: Effect on P-gp level in human NCI/ADR-RES cells at 1 to 10 uM incubated for 24 hrs by Western blot analysis; assay type: functional, cell-based; details: dose 1-10 µM
[27] = AUC (infinity) in Sprague-Dawley rat at 30 mg/kg, po measured for 24 hrs by LC-MS analysis; assay type: ADME, organism-based; details: in vivo
NCI/ADR-RES [28] = test: Reversal fold, ratio of PTX IC50 to PTX IC50 in presence of test compound for reversal effect on P-gp-mediated multidrug resistance in human NCI/ADR-RES cells incubated for 72 hrs by SRB assay; assay type: functional
[29] = MRT (infinity) in Sprague-Dawley rat at 1 mg/kg, iv measured for 24 hrs by LC-MS analysis; assay type: ADME, organism-based; details: in vivo
KBv200 [30] = test: Effect on P-gp level in human KBv200 cells at 1 to 10 uM incubated for 24 hrs by Western blot analysis; assay type: functional, cell-based; details: dose 1-10 µM
KBv200 [31] = test: Reversal fold, ratio of VNR IC50 to VNR IC50 in presence of test compound for reversal effect on P-gp-mediated multidrug resistance in human KBv200 cells incubated for 72 hrs by SRB assay; assay type: functional
[32] = Lipophilicity, logD of compound at pH 7.4; assay type: physicochemical; details: buffer
NCI/ADR-RES [33] = test: Reversal fold, ratio of ADR IC50 to ADR IC50 in presence of test compound for reversal effect on P-gp-mediated multidrug resistance in human NCI/ADR-RES cells incubated for 72 hrs by SRB assay; assay type: functional
[34] = Inhibition of ADR uptake in human KBv200 cells assessed as ADR accumulation at 1 uM incubated for 10 mins by flow cytometry (reference value: 6.2 %); assay type: functional; parameters: scale not given: the % may be the effect or the level left
NCI/ADR-RES [35] = test: Reversal fold, ratio of VNR IC50 to VNR IC50 in presence of test compound for reversal effect on P-gp-mediated multidrug resistance in human NCI/ADR-RES cells incubated for 72 hrs by SRB assay; assay type: functional
KBv200 [36] = test: Antitumor activity against human KBv200 cells xenografted in Balb/cA nude mouse assessed as decrease in tumor weight at 75 mg/kg, ip administered upto day 8 and measured for 14 days in presence of VNR; assay type: functional, organism-based; details: time 14.0 day
[37] = MRT (infinity) in Sprague-Dawley rat at 30 mg/kg, po measured for 24 hrs by LC-MS analysis; assay type: ADME, organism-based; details: in vivo
[38] = Toxicity in Balb/cA nude mouse xenografted with human KBv200 cells assessed as animal mortality at 75 mg/kg, ip administered upto day 8 and measured for 14 days; assay type: organism-based; details: in vivo, 336 h, time 14 day
[39] = Oral bioavailability in Sprague-Dawley rat at 30 mg/kg measured for 24 hrs by LC-MS analysis; assay type: ADME, organism-based; details: in vivo
KBv200 [40] = test: Inhibition of cell proliferation in human KBv200 cells assessed as inhibition of VNR at 10 uM incubated for 72 hrs in presence of VNR by SRB assay relative to control; assay type: functional
[41] = Aqueous solubility of compound at neutral pH; assay type: physicochemical
[42] = target: T1, Broad substrate specificity ATP-binding cassette transporter ABCG2 (Homo sapiens, UniProt Q9UNQ0); test: Inhibition of BCRP (unknown origin) expressed in HEK293 cells assessed as increase in mitoxantrone accumulation by flow cytometry; assay type: cell-based
T1 sequence (Q9UNQ0 whole entry): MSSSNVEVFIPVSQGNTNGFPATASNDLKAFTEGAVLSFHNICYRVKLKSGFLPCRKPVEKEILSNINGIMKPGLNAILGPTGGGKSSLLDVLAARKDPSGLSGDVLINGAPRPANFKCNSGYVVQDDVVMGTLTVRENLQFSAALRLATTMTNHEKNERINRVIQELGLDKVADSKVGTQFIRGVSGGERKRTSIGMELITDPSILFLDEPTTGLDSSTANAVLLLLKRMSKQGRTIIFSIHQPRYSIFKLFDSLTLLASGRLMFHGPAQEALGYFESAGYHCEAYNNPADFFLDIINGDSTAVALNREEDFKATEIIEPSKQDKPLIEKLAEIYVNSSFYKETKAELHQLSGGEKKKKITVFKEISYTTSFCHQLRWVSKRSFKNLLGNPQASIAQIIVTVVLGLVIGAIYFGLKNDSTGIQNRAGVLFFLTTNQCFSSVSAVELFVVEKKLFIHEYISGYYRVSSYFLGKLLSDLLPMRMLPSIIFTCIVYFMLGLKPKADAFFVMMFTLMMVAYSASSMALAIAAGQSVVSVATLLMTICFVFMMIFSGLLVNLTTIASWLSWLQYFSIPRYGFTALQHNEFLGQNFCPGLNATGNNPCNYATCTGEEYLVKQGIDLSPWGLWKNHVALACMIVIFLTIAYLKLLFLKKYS

KBv200 [43] = test: Antitumor activity against human KBv200 cells xenografted in Balb/cA nude mouse assessed as decrease in tumor volume at 75 mg/kg, ip administered upto day 8 and measured for 14 days in presence of VNR; assay type: functional, organism-based; details: time 14.0 day

Chain of Multidrug resistance-associated protein 1 (P33527 whole entry): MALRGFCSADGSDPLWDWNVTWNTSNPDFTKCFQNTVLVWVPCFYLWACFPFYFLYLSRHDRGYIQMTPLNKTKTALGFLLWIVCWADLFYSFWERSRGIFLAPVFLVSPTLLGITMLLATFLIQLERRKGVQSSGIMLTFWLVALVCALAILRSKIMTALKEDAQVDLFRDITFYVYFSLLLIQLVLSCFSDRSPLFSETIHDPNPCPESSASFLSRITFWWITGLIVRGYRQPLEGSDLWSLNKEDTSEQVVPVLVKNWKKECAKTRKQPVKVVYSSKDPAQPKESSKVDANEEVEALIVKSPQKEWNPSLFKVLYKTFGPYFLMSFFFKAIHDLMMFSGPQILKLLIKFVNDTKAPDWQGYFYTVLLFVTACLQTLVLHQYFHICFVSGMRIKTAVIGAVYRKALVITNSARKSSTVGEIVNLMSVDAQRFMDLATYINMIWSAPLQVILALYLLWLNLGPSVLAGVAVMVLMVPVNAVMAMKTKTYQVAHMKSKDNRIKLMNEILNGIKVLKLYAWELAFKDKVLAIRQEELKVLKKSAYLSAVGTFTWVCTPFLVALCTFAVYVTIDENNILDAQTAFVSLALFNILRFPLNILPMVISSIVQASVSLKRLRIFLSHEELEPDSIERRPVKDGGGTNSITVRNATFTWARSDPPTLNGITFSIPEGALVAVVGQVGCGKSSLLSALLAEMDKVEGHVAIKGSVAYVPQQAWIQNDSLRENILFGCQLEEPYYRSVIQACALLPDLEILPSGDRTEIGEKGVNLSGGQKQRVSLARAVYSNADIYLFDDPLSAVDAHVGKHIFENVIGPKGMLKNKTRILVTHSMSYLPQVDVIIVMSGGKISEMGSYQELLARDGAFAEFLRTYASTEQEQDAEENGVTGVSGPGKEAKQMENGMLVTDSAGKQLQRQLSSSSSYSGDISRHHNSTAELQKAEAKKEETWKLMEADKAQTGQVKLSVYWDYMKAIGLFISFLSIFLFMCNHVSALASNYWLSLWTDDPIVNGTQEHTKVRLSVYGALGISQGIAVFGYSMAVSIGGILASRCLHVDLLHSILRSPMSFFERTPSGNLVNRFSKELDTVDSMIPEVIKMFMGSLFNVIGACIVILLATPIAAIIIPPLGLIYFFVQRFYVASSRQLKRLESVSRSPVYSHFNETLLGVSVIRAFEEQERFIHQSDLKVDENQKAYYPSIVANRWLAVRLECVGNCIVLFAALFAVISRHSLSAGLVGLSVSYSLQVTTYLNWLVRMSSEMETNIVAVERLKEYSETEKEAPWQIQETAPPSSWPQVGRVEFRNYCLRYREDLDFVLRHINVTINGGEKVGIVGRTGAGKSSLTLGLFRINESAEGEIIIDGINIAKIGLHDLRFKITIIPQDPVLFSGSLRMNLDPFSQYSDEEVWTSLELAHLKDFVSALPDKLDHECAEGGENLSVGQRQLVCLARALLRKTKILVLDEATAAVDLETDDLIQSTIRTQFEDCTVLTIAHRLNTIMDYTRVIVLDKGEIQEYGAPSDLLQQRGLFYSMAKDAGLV

COc1cc2c(cc1OC)CN(CCc1ccc(NC(=O)c3cc(OC)c(OC)cc3NC(=O)c3cnc4ccccc4c3)cc1)CC2
inhibition (KBv200 [1]): Active | inhibition (KBv200 [2]): Active | inhibition (KBv200 [3]): Active

CC(=O)O[C@H]1C(=O)[C@@]2(C)[C@H]([C@H](OC(=O)c3ccccc3)[C@]3(O)C[C@H](OC(=O)[C@H](O)[C@@H](NC(=O)c4ccccc4)c4ccccc4)C(C)=C1C3(C)C)[C@]1(OC(C)=O)CO[C@@H]1C[C@@H]2O [PACLITAXEL]
IC50 (KBv200 [4]): 238 nM

CC(C)[C@@H]1NC(=O)CCCCCCCCCCCC(=O)N[C@@H](Cc2ccccc2)COC1=O
Ratio IC50 (KBv200 [5]): 49.6 | inhibition (KBv200 [6]): inactive | AUC(0-t) at 24 h [7]: 1260 ng·h/mL | Activity (KBv200 [8]): Active | Activity [9]: Non-Toxic | inhibition (KBv200 [1]): inactive | Cmax [10]: 34.4 ng/mL | Tmax [11]: 0.25 h | AUC(0-t) at 24 h [12]: 32.3 ng·h/mL | Activity (KBv200 [13]): 2.7% | Ratio IC50 (KBv200 [14]): 124 | AUC [15]: 1263 ng·h/mL | Activity [16]: 33.8% | Activity [17]: 86.4% | half-life [18]: 1.09 h | Vd [19]: 1.53 L/kg | Activity [20]: 88.6% | Ratio IC50 (KBv200 [21]): 12.1 | inhibition (INH) [22]: Active | Activity (KBv200 [23]): inactive | inhibition (KBv200 [2]): Active | inhibition (KBv200 [24]): Active | half-life [25]: 2.38 h | Activity (NCI/ADR-RES [26]): inactive | AUC(0-inf) [27]: 43.4 ng·h/mL | Ratio IC50 (NCI/ADR-RES [28]): 159.9 | MRT inf [29]: 0.75 h | Activity (KBv200 [30]): inactive | Ratio IC50 (KBv200 [31]): 102.4 | inhibition (KBv200 [3]): Active | logD [32]: 5 | Ratio IC50 (NCI/ADR-RES [33]): 33.9 | Activity [34]: 6.6% | Ratio IC50 (NCI/ADR-RES [35]): 133.4 | Activity (KBv200 [36]): Active | MRT inf [37]: 3.11 h | Activity [38]: Non-Toxic | bioavailability [39]: 0.09% | inhibition at 10 µM (KBv200 [40]): 96.9% | solubility [41]: 0.64 µg/mL (≈ 1.4 µM) | inhibition (INH) [42]: Active | Activity (KBv200 [43]): Active
